Measured values from US12441691B2 (Cytokinetics, Inc., priority 2020, dated 2025).
pEC50: −log10 of the molar value.

Legend:
[1] = tested on: rabbit skeletal myofibrils (fast skeletal myofibrils); test: Activation of fast skeletal myofibrils (PUMA assay, AC1.4); assay type: biochemical; conditions: calcium at pCa25, AC1.4 = concentration at which the compound increased the enzymatic activity
Outline: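 In 12 mM PIPES pH 6.8 with 2 mM MgCl2 and 1 mM DTT, Triton-washed rabbit skeletal myofibrils were run at the pCa25 calcium level. Myosin-made ADP was recycled through a PK/LDH coupled system; NADH loss read at 340 nm.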

[2] = tested on: ankle plantarflexor muscle; test: Rat isometric ankle plantarflexor muscle force; assay type: in vivo, Sprague Dawley rats; conditions: continuous intravenous infusion over sixty minutes, 30 Hz nerve stimulation, estimated EC50 = concentration at which muscle force is 50% of pre-dose maximum tension
Description: Female Sprague Dawley rats were placed under a stable anesthetic plane with inhaled isoflurane (1-5%). One incision was made on the mid-thigh region of the right leg to expose the sciatic nerve. To prevent co-contraction of the ankle dorsiflexors, an additional incision was made lateral to the patella to isolate and sever the peroneal nerve. Rats were then placed on a temperature-maintained in situ muscle analysis rig (Aurora Scientific, Model 806C). The knee was immobilized in a clamp between two sharpened screws and the foot was taped to a footplate attached to a force transducer (Aurora Scientific, Ontario, Canada). Stainless steel needle electrodes (0.10 mm) were hooked around the exposed sciatic nerve. Isometric ankle plantarflexor muscle contractile force was assessed with the ankle joint at 90° flexion. A 30 Hz electrical stimulation (under supramaximal voltage conditions) was applied to the nerve and the resulting muscle force was recorded via a servomotor. A pre-dose 30 Hz force response was established as the baseline force. A pre-dose 150 Hz force response was established as the maximum isometric force. Compounds were formulated in 50% polyethylene glycol (PEG): 16% Cavitron: 10% dimethylacetamide (DMA) and administered by continuous intravenous infusion over a sixty minute period. The muscle force response to compound was measured every two minutes over the dosing period. Data were reported as an estimated EC50 value, which is the concentration at which muscle force is 50% of the pre-dose maximum tension. In Table 10, “Example Compound” refers to the compound labeled with the same number in Table 2.

[3] = Gravimetric vapour sorption (GVS); assay type: physicochemical; conditions: for Hygroscopicity by GVS: 0-90% RH; for XRPD after GVS analysis: form after GVS measurement
Procedure: Sorption isotherms were obtained using a SMS DVS Intrinsic moisture sorption analyser, controlled by DVS Intrinsic Control software. The sample temperature was maintained at 25° C. by the instrument controls. The humidity was controlled by mixing streams of dry and wet nitrogen, with a total flow rate of 200 ml/min. The relative humidity was measured by a calibrated Rotronic probe (dynamic range of 1.0-100% RH), located near the sample. The weight change, (mass relaxation) of the sample as a function of % RH was constantly monitored by a microbalance (accuracy ±0.005 mg).
Typically, 5-30 mg of sample was placed in a tared mesh stainless steel basket under ambient conditions. The sample was loaded and unloaded at 40% RH and 25° C. (typical room conditions). A moisture sorption isotherm was performed as outlined below (2 scans per complete cycle). The standard isotherm was performed at 25° C. at 10% RH intervals over a 0-90% RH range. Typically, a double cycle (4 scans) was carried out. Data analysis was carried out within Microsoft Excel using the DVS Analysis Suite.
The sample was recovered after completion of the isotherm and re-analysed by XRPD.

[4] = Static storage stability of crystalline form by XRPD; assay type: physicochemical
[5] = Water determination by Karl Fischer titration (KF); assay type: physicochemical
Procedure: The water content of each sample was measured on a Metrohm 874 Oven Sample Processor at 150° C. with 851 Titrano Coulometer using Hydranal Coulomat AG oven reagent and nitrogen purge. Weighed solid samples were introduced into a sealed sample vial. Approximately 10 mg of sample was used per titration and duplicate determinations were made. […] Data collection and analysis were performed using Tiamo software.

[6] = 40° C./75% RH, 7 days (one week)

| Compound | AC1.4 [1] | pEC50 [2] | also measured |
| --- | --- | --- | --- |
| CC(C)[C@H]1C(=O)Nc2ccccc2CN1C(N)=O [Compound 7, (S)-3-Isopropyl-2-oxo-1,2,3,5-tetrahydro-4H-benzo[e][1,4]diazepine-4-carboxamide] | 1.80 µM | 4.39 | – |
| CC[C@H](C)[C@H]1C(=O)Nc2ccccc2CN1C(=O)CCO [Compound 49, (S)-3-((S)-sec-butyl)-4-(3-hydroxypropanoyl)-1,3,4,5-tetrahydro-2H-benzo[e][1,4]diazepin-2-one] | 0.55 µM | 4.55 | – |
| CC[C@H](C)[C@H]1C(=O)Nc2ccccc2CN1C(=O)N[C@H]1CCN(C)C1 [Compound 144, (S)-3-((S)-sec-butyl)-N-((S)-1-methylpyrrolidin-3-yl)-2-oxo-1,2,3,5-tetrahydro-4H-benzo[e][1,4]diazepine-4-carboxamide] | 0.28 µM | 4.98 | – |
| CC[C@H](C)[C@H]1C(=O)Nc2cncc(F)c2CN1C(N)=O [Form II] | – | – | Hygroscopicity by GVS [3]: slightly hygroscopic; GVS mass change ([3]; between 0 and 90% RH, 25° C.): 0.23%; XRPD after GVS analysis [3]: unchanged; Static storage, XRPD [4, 6]: no changes |
| CC[C@H](C)[C@H]1C(=O)Nc2ccccc2CN1C(=O)CC(N)=O [Compound 1, 3-((S)-3-((S)-sec-Butyl)-2-oxo-1,2,3,5-tetrahydro-4H-benzo[e][1,4]diazepin-4-yl)-3-oxopropanamide] | 0.91 µM | 4.58 | – |
| CC[C@H](C)[C@H]1C(=O)Nc2cc(F)cc(F)c2CN1C(N)=O [Compound 8, (S)-3-((S)-sec-butyl)-6,8-difluoro-2-oxo-1,2,3,5-tetrahydro-4H-benzo[e][1,4]diazepine-4-carboxamide] | 0.37 µM | 4.82 | – |
| CC[C@H](C)[C@H]1C(=O)Nc2cnccc2CN1C(N)=O [Compound 12, (S)-3-((S)-sec-butyl)-2-oxo-1,2,3,5-tetrahydro-4H-pyrido[3,4-e][1,4]diazepine-4-carboxamide] | 0.84 µM | 4.41 | – |
| CC[C@H](C)[C@H]1C(=O)Nc2ccccc2CN1/C(N)=N/C#N [Compound 2, (S,E)-3-((S)-sec-Butyl)-N′-cyano-2-oxo-1,2,3,5-tetrahydro-4H-benzo[e][1,4]diazepine-4-carboximidamide] | 0.08 µM | 4.72 | – |
| CC(C)[C@H]1C(=O)Nc2ccccc2CN1/C(N)=N/C#N [Compound 64, (S,E)-N′-Cyano-3-isopropyl-2-oxo-1,2,3,5-tetrahydro-4H-benzo[e][1,4]diazepine-4-carboximidamide] | 0.53 µM | 4.70 | – |
| CC[C@H](C)[C@H]1C(=O)Nc2cnccc2CN1/C(N)=N/C#N [Compound 82, (S,E)-3-((S)-sec-butyl)-N′-cyano-2-oxo-1,2,3,5-tetrahydro-4H-pyrido[3,4-e][1,4]diazepine-4-carboximidamide] | 0.24 µM | 4.67 | – |
| CC[C@H](C)[C@H]1C(=O)Nc2ccccc2CN1C(=O)N1CC(O)C1 [Compound 32, (S)-3-((S)-sec-Butyl)-4-(3-hydroxyazetidine-1-carbonyl)-1,3,4,5-tetrahydro-2H-benzo[e][1,4]diazepin-2-one] | 0.13 µM | 4.90 | – |
| CC[C@H](C)[C@H]1C(=O)Nc2cncc(F)c2CN1C(N)=O [Compound 10, (S)-3-((S)-sec-Butyl)-6-fluoro-2-oxo-1,2,3,5-tetrahydro-4H-pyrido[3,4-e][1,4]diazepine-4-carboxamide] | 0.71 µM | 4.73 | – |
| CC[C@H](C)[C@H]1C(=O)Nc2cncc(F)c2CN1C(N)=O [Form I] | – | – | Hygroscopicity by GVS [3]: slightly hygroscopic; GVS mass change ([3]; between 0 and 90% RH, 25° C.): 0.29%; GVS water uptake, mol equivalents of water ([3]; between 0 and 90% RH, 25° C.): 0.04 mol. equivalents water; XRPD after GVS analysis [3]: unchanged; Static storage, XRPD ([4]; 25° C./97% RH (one week for Form I)): unchanged; Static storage, XRPD [4, 6]: unchanged; KF water content [5]: 0.1% |
| CC(C)[C@H]1C(=O)Nc2cc(F)ccc2CN1C(N)=O [Compound 357, (S)-8-fluoro-3-isopropyl-2-oxo-1,2,3,5-tetrahydro-4H-benzo[e][1,4]diazepine-4-carboxamide] | 1.69 µM | 4.23 | – |
| CC[C@H](C)[C@H]1C(=O)Nc2ccc(F)cc2CN1C(N)=O [Compound 9, (S)-3-((S)-sec-Butyl)-7-fluoro-2-oxo-1,2,3,5-tetrahydro-4H-benzo[e][1,4]diazepine-4-carboxamide] | 0.28 µM | 4.72 | – |
| CC[C@H](C)[C@H]1C(=O)Nc2cccc(F)c2CN1C(N)=O [Compound 65, (S)-3-((S)-sec-butyl)-6-fluoro-2-oxo-1,2,3,5-tetrahydro-4H-benzo[e][1,4]diazepine-4-carboxamide] | 0.37 µM | 4.95 | – |
| CC[C@H](C)[C@H]1C(=O)Nc2ccccc2CN1CC(N)=O [Compound 6, 2-((S)-3-((S)-sec-Butyl)-2-oxo-1,2,3,5-tetrahydro-4H-benzo[e][1,4]diazepin-4-yl)acetamide] | 0.89 µM | 4.69 | – |
| CC[C@H](C)[C@H]1C(=O)Nc2ccccc2[C@H](C)N1C(N)=O (single isomer, unassigned) [Compound 39] | 0.17 µM | – | – |
| CC(C)[C@H]1C(=O)Nc2ccccc2CN1c1nccs1 [Compound 323, (S)-3-isopropyl-4-(thiazol-2-yl)-1,3,4,5-tetrahydro-2H-benzo[e][1,4]diazepin-2-one] | 0.66 µM | – | – |
| CC[C@H](C)[C@H]1C(=O)Nc2ccccc2CN1C(=O)NCC(C)(C)C(N)=O [Compound 263, (S)-N-(3-amino-2,2-dimethyl-3-oxopropyl)-3-((S)-sec-butyl)-2-oxo-1,2,3,5-tetrahydro-4H-benzo[e][1,4]diazepine-4-carboxamide] | 2.70 µM | – | – |
| CC[C@H](C)[C@H]1C(=O)Nc2ccc(F)cc2CN1C(=O)N[C@H]1C[C@H](O)C1 [Compound 354, (S)-3-((S)-sec-butyl)-7-fluoro-N-((1r,3S)-3-hydroxycyclobutyl)-2-oxo-1,2,3,5-tetrahydro-4H-benzo[e][1,4]diazepine-4-carboxamide] | 1.59 µM | – | – |
| CC[C@H](C)[C@H]1C(=O)Nc2ccccc2CN1c1c(N(C)C)c(=O)c1=O [Compound 131, 3-((S)-3-((S)-sec-butyl)-2-oxo-1,2,3,5-tetrahydro-4H-benzo[e][1,4]diazepin-4-yl)-4-(dimethylamino)cyclobut-3-ene-1,2-dione] | 0.02 µM | – | – |
| CC[C@H](C)[C@H]1C(=O)Nc2ccccc2CN1C(=O)NCCNC(N)=O [Compound 212, (S)-3-((S)-sec-butyl)-2-oxo-N-(2-ureidoethyl)-1,2,3,5-tetrahydro-4H-benzo[e][1,4]diazepine-4-carboxamide] | 1.27 µM | – | – |
| CC[C@H](C)[C@H]1C(=O)Nc2ccccc2CN1C(=O)N[C@@H]1CCN(C)C1 [Compound 143, (S)-3-((S)-sec-butyl)-N-((R)-1-methylpyrrolidin-3-yl)-2-oxo-1,2,3,5-tetrahydro-4H-benzo[e][1,4]diazepine-4-carboxamide] | 0.35 µM | – | – |
| CC[C@H](C)[C@H]1C(=O)Nc2cccc(Br)c2CN1C(N)=O [Compound 67, (S)-6-bromo-3-((S)-sec-butyl)-2-oxo-1,2,3,5-tetrahydro-4H-benzo[e][1,4]diazepine-4-carboxamide] | 2.15 µM | – | – |
